From patent US20040009485A1, “Cellular arrays for the identification of altered gene expression” (priority 2002, published 2004)

System: LuxArray 1.04 E. coli strains (luxCDABE gene fusions)
Assay: LuxArray 1.04 limonene stress of the reporter array in liquid culture
Assay type: cell-based
Settings: 80% saturated limonene in LB
Method: Microplates from −80° C. containing the LuxArray 1.04 E. coli strains were thawed and used to inoculate 100 μl LB medium supplemented with 100 μg/ml ampicillin in Costar#3595 flat bottomed 96-well microplates. Following overnight growth at 37° C., the plates were visually examined and any wells with little or no turbidity were recorded. Then these cultures were diluted by transfer of 15 μl to 135 μl LB medium in Costar #3595, flat bottom 96-well microplates and were moderately swirl shaken on an IKA Schuttler MTS 4 shaker at setting 400 for two hrs at 37° C. in a humidified box. Twenty μl of each these actively growing cultures were transferred to the corresponding well in sets of three microplates, one containing 80 μl of LB medium, another containing 80 μl of LB medium saturated with limonene at room temperature, and the third containing 40 μl of LB medium saturated with limonene and 40 μl of LB medium. An initial (zero time) reading was taken using an MLX microplate luminometer (Dynex) pre-warmed to 37° C. Then the plates were placed at 37° C. without shaking. Additional bioluminescent measurements were taken at 45, 90, and 135 minutes. To limit the number of microplates handled each day, LuxArray 1.04 microplates 1 to 5, microplates 6 to 10, microplates 11 to 15, and microplates […] were used on each of four different days.
The data were normalized to correct for growth-inhibition caused by limonene on the basis of each individual day that data was collected. The bioluminescence (RLU) of each individual culture for each day of experimentation under each of the three conditions, were added to determine the daily array total RLU. These were used to find a daily normalization factor (DNF) as follows:
DNF=Daily total array signal(time zero, LB control)/Daily total array signal(time x, condition y)
Each measurement from the corresponding day, time point, and condition was multiplied by DNF to yield a normalized signal. The data from wells that were scored to have little or no growth were not used in further analysis. The normalized data were analyzed with GeneSpring (Silicon Genetics) software, which averaged the signal from each of the duplicate cultures for each reporter gene fusion.
Thus, patterns of gene expression from the 80% saturated limonene in LB medium were further examined. […] These lists were examined and gene fusions with very low normalized RLU values (<0.012 RLU) at all conditions were eliminated. […] The designation of “>2X” is given for upregulation while “*” is listed if the expression was less than 2 fold increased. At 45 minutes, the expression of fourteen gene fusions was increased; none of these was increased 3 fold or higher. At 90 minutes, 37 gene fusions were induced; these included all but one of the gene fusions observed at 45 minutes. […] These were fusions of the luxCDABE reporter to the promoter regions of uhpT (3.8×), nirB (3.7×) and narK (3.6×). At 135 minutes, 39 gene fusions were induced, which included 13 fusions not observed at 45 or 90 minutes.

SMILES: C=C(C)[C@H]1CC=C(C)CC1 [limonene]
- upregulation of gene fusion (b2451 fusion, 135 minutes): >2X (The designation of “>2X” is given for upregulation)
- upregulation of gene fusion (b2550 fusion, 45 minutes): * (“*” is listed if the expression was less than 2 fold increased)
- upregulation of gene fusion (b2550 fusion, 90 minutes): >2X (The designation of “>2X” is given for upregulation)
- upregulation of gene fusion (b2550 fusion, 135 minutes): * (“*” is listed if the expression was less than 2 fold increased)
- upregulation of gene fusion (b2699 (recA) fusion, 45 minutes): * (“*” is listed if the expression was less than 2 fold increased)
- upregulation of gene fusion (b2699 (recA) fusion, 90 minutes): >2X (The designation of “>2X” is given for upregulation)
- upregulation of gene fusion (b2699 (recA) fusion, 135 minutes): >2X (The designation of “>2X” is given for upregulation)
- upregulation of gene fusion (b2999 fusion, 45 minutes): >2X (The designation of “>2X” is given for upregulation)
- upregulation of gene fusion (b2999 fusion, 90 minutes): * (“*” is listed if the expression was less than 2 fold increased)
- upregulation of gene fusion (b2999 fusion, 135 minutes): * (“*” is listed if the expression was less than 2 fold increased)
- upregulation of gene fusion (b3012 fusion, 45 minutes): >2X (The designation of “>2X” is given for upregulation)
- upregulation of gene fusion (b3012 fusion, 90 minutes): >2X (The designation of “>2X” is given for upregulation)
- upregulation of gene fusion (b3012 fusion, 135 minutes): >2X (The designation of “>2X” is given for upregulation)
- upregulation of gene fusion (b3245 fusion, 45 minutes): * (“*” is listed if the expression was less than 2 fold increased)
- upregulation of gene fusion (b3245 fusion, 90 minutes): >2X (The designation of “>2X” is given for upregulation)
- upregulation of gene fusion (b3245 fusion, 135 minutes): >2X (The designation of “>2X” is given for upregulation)
- upregulation of gene fusion (b3267 (yhdV) fusion, 45 minutes): * (“*” is listed if the expression was less than 2 fold increased)
- upregulation of gene fusion (b3267 (yhdV) fusion, 90 minutes): >2X (The designation of “>2X” is given for upregulation)
- upregulation of gene fusion (b3267 (yhdV) fusion, 135 minutes): >2X (The designation of “>2X” is given for upregulation)
- upregulation of gene fusion (b3336 (bfr) fusion, 45 minutes): * (“*” is listed if the expression was less than 2 fold increased)
- upregulation of gene fusion (b3336 (bfr) fusion, 90 minutes): >2X (The designation of “>2X” is given for upregulation)
- upregulation of gene fusion (b3336 (bfr) fusion, 135 minutes): * (“*” is listed if the expression was less than 2 fold increased)
- upregulation of gene fusion (b3365 (nirB) fusion, 45 minutes): * (“*” is listed if the expression was less than 2 fold increased)
- upregulation of gene fusion (b3365 (nirB) fusion, 90 minutes): >2X (The designation of “>2X” is given for upregulation)
- upregulation of gene fusion (b3365 (nirB) fusion, 135 minutes): >2X (The designation of “>2X” is given for upregulation)
- upregulation of gene fusion (b3419 (yhgJ) fusion, 45 minutes): * (“*” is listed if the expression was less than 2 fold increased)
- upregulation of gene fusion (b3419 (yhgJ) fusion, 90 minutes): >2X (The designation of “>2X” is given for upregulation)
- upregulation of gene fusion (b3419 (yhgJ) fusion, 135 minutes): >2X (The designation of “>2X” is given for upregulation)
- upregulation of gene fusion (b3666 (uhpT) fusion, 45 minutes): * (“*” is listed if the expression was less than 2 fold increased)
- upregulation of gene fusion (b3666 (uhpT) fusion, 90 minutes): >2X (The designation of “>2X” is given for upregulation)
- upregulation of gene fusion (b3666 (uhpT) fusion, 135 minutes): >2X (The designation of “>2X” is given for upregulation)
- upregulation of gene fusion (b3904 (rhaB) fusion, 45 minutes): >2X (The designation of “>2X” is given for upregulation)
- upregulation of gene fusion (b3904 (rhaB) fusion, 90 minutes): >2X (The designation of “>2X” is given for upregulation)
- upregulation of gene fusion (b3904 (rhaB) fusion, 135 minutes): >2X (The designation of “>2X” is given for upregulation)
- upregulation of gene fusion (b3942 (katG) fusion, 45 minutes): * (“*” is listed if the expression was less than 2 fold increased)
- upregulation of gene fusion (b3942 (katG) fusion, 90 minutes): >2X (The designation of “>2X” is given for upregulation)
- upregulation of gene fusion (b3942 (katG) fusion, 135 minutes): >2X (The designation of “>2X” is given for upregulation)
- upregulation of gene fusion (b4043 (lexA) fusion, 45 minutes): * (“*” is listed if the expression was less than 2 fold increased)
- upregulation of gene fusion (b4043 (lexA) fusion, 90 minutes): >2X (The designation of “>2X” is given for upregulation)
- upregulation of gene fusion (b4043 (lexA) fusion, 135 minutes): * (“*” is listed if the expression was less than 2 fold increased)
- upregulation of gene fusion (b4106 (phnC) fusion, 45 minutes): >2X (The designation of “>2X” is given for upregulation)
- upregulation of gene fusion (b4106 (phnC) fusion, 90 minutes): >2X (The designation of “>2X” is given for upregulation)
- upregulation of gene fusion (b4106 (phnC) fusion, 135 minutes): >2X (The designation of “>2X” is given for upregulation)
- upregulation of gene fusion (b4264 (yjgS) fusion, 45 minutes): * (“*” is listed if the expression was less than 2 fold increased)
- upregulation of gene fusion (b4264 (yjgS) fusion, 90 minutes): >2X (The designation of “>2X” is given for upregulation)
- upregulation of gene fusion (b4264 (yjgS) fusion, 135 minutes): * (“*” is listed if the expression was less than 2 fold increased)
- upregulation of gene fusion (b4392 (slt) fusion, 45 minutes): >2X (The designation of “>2X” is given for upregulation)
- upregulation of gene fusion (b4392 (slt) fusion, 90 minutes): >2X (The designation of “>2X” is given for upregulation)
- upregulation of gene fusion (b4392 (slt) fusion, 135 minutes): * (“*” is listed if the expression was less than 2 fold increased)
- upregulation of gene fusion (fold) (katG promoter fusion, 135 minutes): 4.1 ×
- upregulation of gene fusion (fold) (narK promoter fusion, 90 minutes): 3.6 ×
- upregulation of gene fusion (fold) (nirB promoter fusion, 90 minutes): 3.7 ×
- upregulation of gene fusion (fold) (nirB promoter fusion, 135 minutes): 4.1 ×
- upregulation of gene fusion (fold) (uhpT promoter fusion, 90 minutes): 3.8 ×
- upregulation of gene fusion (fold) (uhpT promoter fusion, 135 minutes): 7.7 ×
